Experimental findings from patent US11572398B2, “GLP-1 derivatives and uses thereof” (Novo Nordisk A/S, priority 2014, dated 2023) are described below.

The target in series [1] is T1, human GLP-1 receptor (Homo sapiens, UniProt P43220).
T1 construct: expressed in transfected cells; host or cells: BHK cells (parent line BHKTS13), clone FCW467-12A; membrane preparation
Nature of the series: GLP-1 receptor binding: competitive binding assay (125I-GLP-1, SPA) on isolated membranes at low and high HSA.

Series [2] can be described thus: Pharmacokinetic study in minipigs (i.v.). Particulars: male, Göttingen, minipig, in vivo, iv.
Description: The purpose of this study is to determine the protraction in vivo of the GLP-1 derivatives after i.v. administration to minipigs, i.e. the prolongation of their time in the body and thereby their time of action. This is done in a pharmacokinetic (PK) study, where the terminal half-life of the derivative in question is determined. By terminal half-life is meant the time it takes to halve a certain plasma concentration in the terminal elimination phase.
Male Göttingen minipigs were obtained from Ellegaard Göttingen Minipigs (Dalmose, Denmark) approximately 7-14 months of age and weighing approximately 16-35 kg were used in the studies. The minipigs were housed either individually (pigs with permanent catheters) or in a group and fed restrictedly once or twice daily with SDS minipig diet (Special Diets Services, Essex, UK).
After at least 2 weeks of acclimatisation two permanent central venous catheters were implanted in vena cava caudalis or cranialis in each animal. The animals were allowed 1 week recovery after the surgery, and were then used for repeated pharmacokinetic studies with a suitable wash-out period between successive GLP-1 derivative dosings.
Blood samples (for example 0.8 ml) were collected in EDTA buffer (8 mM) and then centrifuged at 4° C. and 1942G for 10 minutes.
Plasma was pipetted into Micronic tubes on dry ice, and kept at −20° C. until analysed for plasma concentration of the respective GLP-1 compound using LOCI. Individual plasma concentration-time profiles were analyzed by a non-compartmental pharmacokinetic method in Phoenix v. 6.2 (Pharsight Inc., Mountain View, Calif., USA), or other relevant software for PK analysis, and the resulting terminal half-lives (harmonic mean) determined.
The target of series [3] is T1, human GLP-1 receptor. Nature of the series: In vitro potency: CRE luciferase reporter gene assay in BHK cells expressing the human GLP-1 receptor. It is filed as cell-based. Put shortly:
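Whole-cell assay in stably transfected BHK cells carrying CRE-driven firefly luciferase, 5×10^3 cells/well, in assay buffer with 2% ovalbumin and 0.2% Pluronic F-68. Compound working solutions were 0.2 μM.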
In general terms: Reporter assays use an easily measured gene product as a stand-in for the process of interest.

The mark [4] stands for this setting: Low HSA IC50, low HSA (max. 0.001% final assay concentration).

Read-outs that look alike come from different tables or passages of the source.

T1 sequence (P43220 24-463): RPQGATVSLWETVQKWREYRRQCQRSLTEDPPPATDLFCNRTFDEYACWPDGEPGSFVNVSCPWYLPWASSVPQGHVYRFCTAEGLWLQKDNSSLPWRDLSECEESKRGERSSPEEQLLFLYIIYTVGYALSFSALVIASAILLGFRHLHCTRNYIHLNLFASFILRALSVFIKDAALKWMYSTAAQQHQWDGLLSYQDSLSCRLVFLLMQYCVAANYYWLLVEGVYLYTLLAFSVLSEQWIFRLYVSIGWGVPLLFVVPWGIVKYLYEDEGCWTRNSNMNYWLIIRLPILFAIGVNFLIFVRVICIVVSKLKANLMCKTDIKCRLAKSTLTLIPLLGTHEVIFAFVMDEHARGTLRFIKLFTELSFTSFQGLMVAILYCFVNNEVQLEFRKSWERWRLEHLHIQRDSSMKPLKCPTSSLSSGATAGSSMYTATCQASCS

In the case of `CC[C@H](C)[C@H](NC(=O)[C@H](Cc1ccccc1)NC(=O)[C@H](CCC(=O)O)NC(=O)[C@H](CCCNC(=N)N)NC(=O)[C@H](C)NC(=O)[C@H](C)NC(=O)[C@H](CCC(N)=O)NC(=O)[C@H](CCC(=O)O)NC(=O)[C@H](CCC(=O)O)NC(=O)[C@H](CC(C)C)NC(=O)[C@H](Cc1ccc(O)cc1)NC(=O)[C@H](CO)NC(=O)[C@H](CO)NC(=O)[C@@H](NC(=O)[C@H](CC(=O)O)NC(=O)[C@H](CO)NC(=O)[C@@H](NC(=O)[C@H](Cc1ccccc1)NC(=O)[C@@H](NC(=O)CNC(=O)[C@H](CCC(=O)O)NC(=O)C(C)(C)NC(=O)[C@@H](N)Cc1c[nH]cn1)[C@@H](C)O)[C@@H](C)O)C(C)C)C(=O)N[C@@H](C)C(=O)N[C@@H](Cc1c[nH]c2ccccc12)C(=O)N[C@@H](CC(C)C)C(=O)N[C@H](C(=O)N[C@@H](CCCNC(=N)N)C(=O)NCC(=O)N[C@@H](CCCNC(=N)N)C(=O)N[C@@H](CCCCNC(=O)COCCOCCNC(=O)COCCOCCNC(=O)CN(CCCNC(=O)COCCOCCNC(=O)COCCOCCNC(=O)COCCOCCNC(=O)COCCOCCNC(=O)CC[C@H](NC(=O)[C@H]1CC[C@H](CNC(=O)CCCCCCCCCCCCCCCCCCC(=O)O)CC1)C(=O)O)CCCNC(=O)COCCOCCNC(=O)COCCOCCNC(=O)COCCOCCNC(=O)COCCOCCNC(=O)CC[C@H](NC(=O)[C@H]1CC[C@H](CNC(=O)CCCCCCCCCCCCCCCCCCC(=O)O)CC1)C(=O)O)C(=O)O)C(C)C` [Example 11], the IC50 (commonly the concentration that inhibits the measured activity by half) in series [1] (setting [4]) was found to be 350 pM; in series [1] (high HSA (2.0% final assay concentration), read-out: High HSA IC50), 33000 pM. Also, in series [2] (2 nmol/kg), the half-life (as a rule, how long it takes for the measured level to halve) was 160 h. Besides, the EC50 (in general, the concentration giving half of the maximal effect) in series [3] (whole cell reporter gene assay, BHK cells, human GLP-1 receptor, average of at least two replicates, read-out: EC50) amounted to 17 pM.
As for `CC[C@H](C)[C@H](NC(=O)[C@H](Cc1ccccc1)NC(=O)[C@H](CCC(=O)O)NC(=O)[C@H](CCCNC(=N)N)NC(=O)[C@H](C)NC(=O)[C@H](C)NC(=O)[C@H](CCC(N)=O)NC(=O)[C@H](CCC(=O)O)NC(=O)[C@H](CCC(=O)O)NC(=O)[C@H](CC(C)C)NC(=O)[C@H](Cc1ccc(O)cc1)NC(=O)[C@H](CO)NC(=O)[C@H](CO)NC(=O)[C@@H](NC(=O)[C@H](CC(=O)O)NC(=O)[C@H](CO)NC(=O)[C@@H](NC(=O)[C@H](Cc1ccccc1)NC(=O)[C@@H](NC(=O)CNC(=O)[C@H](CCC(=O)O)NC(=O)C(C)(C)NC(=O)[C@@H](N)Cc1c[nH]cn1)[C@@H](C)O)[C@@H](C)O)C(C)C)C(=O)N[C@@H](C)C(=O)N[C@@H](Cc1c[nH]c2ccccc12)C(=O)N[C@@H](CC(C)C)C(=O)N[C@H](C(=O)N[C@@H](CCCNC(=N)N)C(=O)NCC(=O)N[C@@H](CCCNC(=N)N)C(=O)N[C@@H](CCCCNC(=O)CN(CCCNC(=O)COCCOCCNC(=O)COCCOCCNC(=O)COCCOCCNC(=O)COCCOCCNC(=O)COCCOCCNC(=O)[C@@H](N)CCCCNC(=O)[C@@H](N)CCCCNC(=O)CCCNC(=O)CCCCCCCCCCCCCCCS(=O)(=O)O)CCCNC(=O)COCCOCCNC(=O)COCCOCCNC(=O)COCCOCCNC(=O)COCCOCCNC(=O)COCCOCCNC(=O)[C@@H](N)CCCCNC(=O)[C@@H](N)CCCCNC(=O)CCCNC(=O)CCCCCCCCCCCCCCCS(=O)(=O)O)C(=O)O)C(C)C` [Example 9, N{Epsilon-37}-[2-[bis[3-[[2-[2-[2-[[2-[2-[2-[[2-[2-[2-[[2-[2-[2-[[2-[2-[2-[[(2S)-2-amino-6-[[(2S)-2-amino-6-[4-(16-sulfohexadecanoylamino)butanoylamino]hexanoyl]amino]hexanoyl]amino]ethoxy]ethoxy]acetyl]amino]ethoxy]ethoxy]acetyl]amino]ethoxy]ethoxy]acetyl]amino]ethoxy]ethoxy]acetyl]amino]ethoxy]ethoxy]acetyl]amino]propyl]amino]acetyl]-[Aib8,Glu22,Arg26,Arg34,Lys37]-GLP-1-(7-37)-peptide], the IC50 is 29000 pM in series [1] (High HSA IC50, high HSA (2.0% final assay concentration)) and 160 pM in series [1] (setting [4]). In addition, in series [2] (5 nmol/kg), the half-life is 104 h. The EC50 in series [3] is 1.6 pM.
